Source: US10266506B2, “Compounds for use in imaging, diagnosing and/or treatment of diseases of the central nervous system or of tumors” (PIRAMAL IMAGING SA, priority 2007, dated 2019)
“Also recorded” adds a separate entry of the source.

How the values were obtained:
[1] = literature report; cited from earlier work
[2] = PET brain uptake (time activity curves, SUV) in a cynomolgus monkey; type: in vivo; conditions: e.g. striatum
MAO A = target: T1, MAO A (Homo sapiens, UniProt P21397); test: Autoradiography with [18F]compound 13 on human brain sections, blocking with MAO A inhibitor clorgyline; type: binding; conditions: human AD brain slices; excess (10 μM) of Clorgyline
T1 construct: Autoradiography using [^18F]compound 13 on human brain slices from four brains from patients with diagnosis of Alzheimer's disease; from tissue; host or cells: human brain sections (Alzheimer's disease patients), 18 µm cryosections
T1 sequence (P21397 1-527): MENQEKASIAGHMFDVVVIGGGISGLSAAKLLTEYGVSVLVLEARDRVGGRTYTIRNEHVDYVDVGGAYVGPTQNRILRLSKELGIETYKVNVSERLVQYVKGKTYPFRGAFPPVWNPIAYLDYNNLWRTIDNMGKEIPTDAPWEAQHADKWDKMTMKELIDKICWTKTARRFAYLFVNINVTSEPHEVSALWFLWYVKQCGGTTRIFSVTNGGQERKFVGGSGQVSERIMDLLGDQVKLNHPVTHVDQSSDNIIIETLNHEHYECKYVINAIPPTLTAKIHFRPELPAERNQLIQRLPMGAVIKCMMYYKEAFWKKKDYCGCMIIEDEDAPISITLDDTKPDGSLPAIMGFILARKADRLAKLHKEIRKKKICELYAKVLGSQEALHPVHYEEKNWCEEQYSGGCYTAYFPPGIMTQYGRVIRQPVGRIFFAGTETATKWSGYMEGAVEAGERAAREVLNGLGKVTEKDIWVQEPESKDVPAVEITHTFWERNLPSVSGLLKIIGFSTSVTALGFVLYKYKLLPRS
Experimental: (§1) Thereafter, the slides were removed and brought to room temperature. […] The sections were dipped two times into ice cold distilled water, dried at room temperature and exposed to PhosphorImanger plates (FUJI BAS 5000) over night. For detection of the specificity of the signals an excess (10 μM) of Deprenyl, Pargylin (both for MAO B) and Clorgyline (for MAO A), respectively, was used. After exposure, the sections were immunohistochemically stained using a standard protocol with an anti-GFAP antibody to detect reactive astrocytes. Amyloid β plaques were detected with BAY 949172 (Rowe C C et al. Lancet Neutol 2008; 7: 129-135) using the binding protocol as described above.
FIG. 2A Autoradiographic signal after exposure on the PhosphorImager plate. Note the black dots in the tissue slices corresponding to areas with amyloid β plaques (see examples in FIG. 3).

[3] = Plasma radioactivity and plasma metabolites after injection in a cynomolgus monkey; conditions: compared with [11C]Deprenyl (and compound 5)
Excerpt: Plasma radioactivity profiles have been monitored over time. […] In addition, metabolites occurring in plasma over time have been monitored (FIGS. 8 and 9) for both ligands.

[4] = Biodistribution in NMRI mice (gamma counter); type: in vivo
Experimental: For each time point 3 mice have been used. The mice were injected each with 0.178 MBq[^18F]compound 13. After the respective time points the mice were sacrificed, the organs taken out and measured in a gamma counter. The results were decay corrected.

MAO B = target: T2, MAO B (Homo sapiens, UniProt P27338); test: Autoradiography with [18F]compound 13 on human brain sections (Alzheimer's disease), blocking with MAO B inhibitors; type: binding
T2 construct: Autoradiography using [^18F]compound 13 on human brain slices from four brains from patients with diagnosis of Alzheimer's disease; from tissue; host or cells: human brain sections (Alzheimer's disease patients and normal controls), 18 µm cryosections
T2 sequence (P27338 1-520): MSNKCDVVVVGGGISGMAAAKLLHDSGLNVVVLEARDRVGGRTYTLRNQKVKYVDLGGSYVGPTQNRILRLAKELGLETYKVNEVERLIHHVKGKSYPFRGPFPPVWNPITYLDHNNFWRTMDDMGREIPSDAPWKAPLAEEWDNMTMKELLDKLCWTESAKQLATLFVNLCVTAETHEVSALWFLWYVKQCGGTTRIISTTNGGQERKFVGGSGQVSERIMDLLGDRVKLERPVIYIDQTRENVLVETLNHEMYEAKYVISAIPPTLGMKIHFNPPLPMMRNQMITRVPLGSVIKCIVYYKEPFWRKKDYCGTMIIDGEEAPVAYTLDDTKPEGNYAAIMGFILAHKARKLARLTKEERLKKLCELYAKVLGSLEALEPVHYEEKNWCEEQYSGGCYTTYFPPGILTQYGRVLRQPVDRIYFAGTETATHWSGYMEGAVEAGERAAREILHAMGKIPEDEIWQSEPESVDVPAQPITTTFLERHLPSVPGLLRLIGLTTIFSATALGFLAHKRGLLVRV
Experimental: as §1
FIG. 1A Autoradiographic signal after exposure on the PhosphorImager plate.
FIG. 2A Autoradiographic signal after exposure on the PhosphorImager plate.

SMILES	degradation to metabolite (reported) [1]	uptake and enrichment in specific regions, higher than [11C]Deprenyl [2]	blocking of autoradiographic signal by MAO A inhibitor clorgyline (MAO A)	in vivo metabolic stability [3]	brain uptake of radioactivity ([4]; 2 min p.i.) [% ID/g]	brain radioactivity ([4]; 30 min p.i.) [% ID/g]	brain radioactivity ([4]; after 4 hours) [% ID/g]	correspondence of autoradiographic signal to reactive astrocytes (MAO B; human AD brain slice, GFAP immunoreactivity)	relation of autoradiographic signal to amyloid β plaque load (MAO B; human AD brain slices, amyloid detected with BAY 949172)	blocking of autoradiographic signal by MAO B inhibitors (specificity for MAO B) (MAO B; human AD brain slices, excess (10 μM) of Deprenyl or Pargylin)
C#CCN(C)CCCCCC[18F] [compound 5]	degraded quickly towards a polar [^18F]-labelled metabolite	–	–	–	–	–	–	–	–	–
C#CCN(C)[C@H](C[18F])Cc1ccccc1 [[^18F]compound 13, N-[(2S)-1-(^18F)fluoro-3-phenylpropan-2-yl]-N-methylprop-2-yn-1-amine]	–	about 10%	not with clorgyline	improved metabolic stability; also recorded: more stable than [^11C]Deprenyl	7.5±0.04	2.10±0.33	1.34±0.26	correspondence of the autoradiographic signal to reactive astrocytes is demonstrated	the signal density and intensity corresponds with the amyloid β plaque load	the signals could be blocked with deprenyl and pargylin; also recorded: the signals could be completely blocked with deprenyl
